From US20250110152A1, “METHOD FOR CHARACTERIZING INTERACTION FORCE BETWEEN LIGNIN AND CELLULASE” (NANJING FORESTRY UNIVERSITY, priority 2022, published 2025)

System: cellulase
Assay: AFM test of lignin-cellulase interaction force and dissociation rate in liquid phase environment (cellulase-modified AFM probe, lignin film)
Conditions: for interaction force between lignin / lignin model substance and cellulase: AFM force-displacement curves, liquid phase; for Feq: system lignin (model substance)-cellulase

| SMILES | interaction force between lignin / lignin model substance and cellulase [nN] | most likely dissociation force (loading rate 3 pN/s) [nN] | most likely dissociation force (loading rate 10 pN/s) [nN] | Feq [nN] | most likely dissociation force (loading rate 5 pN/s) [nN] | most likely dissociation force (loading rate 15 pN/s) [nN] | most likely dissociation force (loading rate 20 pN/s) [nN] | other results |
| --- | --- | --- | --- | --- | --- | --- | --- | --- |
| COc1ccccc1O [GA] | 0.58 | 0.39 | 0.88 | 0.58 |  |  |  | most likely dissociation force (loading rate 4 pN/s): 0.41 nN; most likely dissociation force (loading rate 6.61 pN/s): 0.58 nN; most likely dissociation force (loading rate 9 pN/s): 0.63 nN |
| CCCc1ccc(O)c(OC)c1 [G] | 0.97 | 0.87 |  | 0.97 |  |  |  | most likely dissociation force (loading rate 1 pN/s): 0.39 nN; most likely dissociation force (loading rate 5.74 pN/s): 0.97 nN; most likely dissociation force (loading rate 7 pN/s): 1.06 nN; most likely dissociation force (loading rate 12 pN/s): 1.25 nN |
| O=C(O)/C=C/c1ccc(O)cc1 [H] | 12.52 |  | 10.04 | 12.52 | 5.00 | 11.29 | 12.52 | most likely dissociation force (loading rate 7 pN/s): 5.49 nN |
| COc1cc(/C=C/CO)cc(OC)c1O [S—OH] | 4.31 | 3.99 | 4.58 | 4.31 |  |  |  | most likely dissociation force (loading rate 1 pN/s): 2.66 nN; most likely dissociation force (loading rate 5.79 pN/s): 4.31 nN; most likely dissociation force (loading rate 18 pN/s): 6.58 nN |

Further lines, with some results ahead:

| interaction force between lignin / lignin model substance and cellulase [nN] | most likely dissociation force (loading rate 3 pN/s) [nN] | most likely dissociation force (loading rate 10 pN/s) [nN] | Feq [nN] | most likely dissociation force (loading rate 5 pN/s) [nN] | most likely dissociation force (loading rate 15 pN/s) [nN] | most likely dissociation force (loading rate 20 pN/s) [nN] | SMILES | other results |
| --- | --- | --- | --- | --- | --- | --- | --- | --- |
| 2.59 |  | 1.92 | 2.59 | 1.65 | 2.27 | 2.46 | COc1cc(C(O)C(CO)Oc2ccccc2OC)ccc1O (stereo not shown) [GG] | most likely dissociation force (loading rate 24.24 pN/s): 2.59 nN |
| 11.69 |  | 7.65 | 11.69 |  | 8.80 |  | COc1ccccc1OC(CO)C(O)c1cc(OC)c(O)c(OC)c1 (stereo not shown) [SG] | most likely dissociation force (loading rate 13 pN/s): 8.25 nN; most likely dissociation force (loading rate 18.64 pN/s): 11.69 nN; most likely dissociation force (loading rate 23 pN/s): 13.40 nN |
| 4.76 | 3.02 |  | 4.76 | 4.05 |  | 8.54 | COc1cccc(OC)c1O [S] | most likely dissociation force (loading rate 7.89 pN/s): 4.76 nN; most likely dissociation force (loading rate 12 pN/s): 5.21 nN |
